In ChEMBL document CHEMBL5465560, “Selectivity Literature for EUbOPEN Chemogenomic Library” (2024):
One block for each compound: values may come before it.

Columns and labels:
[1] = target: T1, Phosphatidylinositol 3-kinase C2 domain-containing subunit gamma (Homo sapiens) (UniProt O75747); assay: Selectivity interaction (KinomeScan (DiscoverX)) EUB0000666a PIK3C2G; settings: at 10 µM
T1 sequence (whole entry): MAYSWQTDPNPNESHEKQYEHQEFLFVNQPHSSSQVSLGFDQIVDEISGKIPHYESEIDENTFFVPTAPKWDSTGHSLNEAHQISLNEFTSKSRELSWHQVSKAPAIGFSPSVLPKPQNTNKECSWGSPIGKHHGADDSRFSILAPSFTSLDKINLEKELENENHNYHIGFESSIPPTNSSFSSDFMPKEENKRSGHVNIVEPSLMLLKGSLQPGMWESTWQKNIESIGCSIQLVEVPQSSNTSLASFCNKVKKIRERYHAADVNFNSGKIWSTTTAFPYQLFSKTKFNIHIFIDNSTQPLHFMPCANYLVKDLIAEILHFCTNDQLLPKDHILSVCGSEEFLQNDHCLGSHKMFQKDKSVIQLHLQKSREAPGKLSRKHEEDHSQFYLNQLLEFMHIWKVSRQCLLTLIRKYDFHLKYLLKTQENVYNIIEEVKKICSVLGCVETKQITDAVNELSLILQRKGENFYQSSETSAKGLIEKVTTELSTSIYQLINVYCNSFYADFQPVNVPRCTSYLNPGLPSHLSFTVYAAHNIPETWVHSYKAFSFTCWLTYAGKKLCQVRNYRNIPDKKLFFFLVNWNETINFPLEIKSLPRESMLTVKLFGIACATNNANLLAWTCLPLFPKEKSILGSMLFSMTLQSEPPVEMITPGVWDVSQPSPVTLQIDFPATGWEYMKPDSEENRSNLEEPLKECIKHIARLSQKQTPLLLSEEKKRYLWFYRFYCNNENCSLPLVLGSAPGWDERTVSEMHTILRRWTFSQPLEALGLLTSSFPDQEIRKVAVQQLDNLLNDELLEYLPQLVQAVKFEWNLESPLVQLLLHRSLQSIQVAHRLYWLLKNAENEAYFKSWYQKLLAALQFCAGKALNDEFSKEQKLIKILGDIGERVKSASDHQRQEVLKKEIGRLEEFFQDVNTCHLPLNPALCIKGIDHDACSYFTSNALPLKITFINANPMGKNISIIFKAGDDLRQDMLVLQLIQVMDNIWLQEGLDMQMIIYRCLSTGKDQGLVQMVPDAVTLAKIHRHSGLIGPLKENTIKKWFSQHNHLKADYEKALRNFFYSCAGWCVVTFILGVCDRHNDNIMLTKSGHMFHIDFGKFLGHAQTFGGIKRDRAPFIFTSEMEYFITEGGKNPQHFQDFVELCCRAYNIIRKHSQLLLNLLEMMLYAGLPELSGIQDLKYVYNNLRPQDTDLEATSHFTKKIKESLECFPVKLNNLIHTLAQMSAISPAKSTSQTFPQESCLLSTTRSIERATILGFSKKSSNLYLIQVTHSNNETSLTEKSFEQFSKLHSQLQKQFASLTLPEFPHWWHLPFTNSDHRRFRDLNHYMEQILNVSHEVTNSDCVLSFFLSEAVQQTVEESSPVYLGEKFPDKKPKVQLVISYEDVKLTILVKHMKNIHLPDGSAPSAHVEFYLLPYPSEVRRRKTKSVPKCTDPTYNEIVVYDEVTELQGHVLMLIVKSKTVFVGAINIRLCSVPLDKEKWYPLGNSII

[2] = target: T2, Testis-specific serine/threonine-protein kinase 1 (Homo sapiens) (UniProt Q9BXA7); assay: Selectivity interaction (KinomeScan (DiscoverX)) EUB0000666a TSSK1A; settings: at 10 µM
T2 sequence (whole entry): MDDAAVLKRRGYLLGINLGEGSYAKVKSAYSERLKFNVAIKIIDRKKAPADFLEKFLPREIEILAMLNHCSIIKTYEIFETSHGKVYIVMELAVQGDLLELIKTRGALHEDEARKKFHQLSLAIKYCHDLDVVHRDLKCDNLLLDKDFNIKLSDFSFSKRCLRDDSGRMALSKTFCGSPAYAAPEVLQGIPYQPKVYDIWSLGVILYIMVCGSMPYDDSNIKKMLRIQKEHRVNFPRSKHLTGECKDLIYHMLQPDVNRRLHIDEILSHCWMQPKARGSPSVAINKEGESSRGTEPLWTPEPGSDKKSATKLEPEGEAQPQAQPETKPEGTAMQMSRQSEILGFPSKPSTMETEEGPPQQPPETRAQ

[3] = target: Serine/threonine-protein kinase SIK1 (Homo sapiens) (UniProt P57059); assay: Selectivity interaction (ProQinase) EUB0000171b SIK1
Chain of Serine/threonine-protein kinase SIK1 (Homo sapiens) (P57059 whole entry): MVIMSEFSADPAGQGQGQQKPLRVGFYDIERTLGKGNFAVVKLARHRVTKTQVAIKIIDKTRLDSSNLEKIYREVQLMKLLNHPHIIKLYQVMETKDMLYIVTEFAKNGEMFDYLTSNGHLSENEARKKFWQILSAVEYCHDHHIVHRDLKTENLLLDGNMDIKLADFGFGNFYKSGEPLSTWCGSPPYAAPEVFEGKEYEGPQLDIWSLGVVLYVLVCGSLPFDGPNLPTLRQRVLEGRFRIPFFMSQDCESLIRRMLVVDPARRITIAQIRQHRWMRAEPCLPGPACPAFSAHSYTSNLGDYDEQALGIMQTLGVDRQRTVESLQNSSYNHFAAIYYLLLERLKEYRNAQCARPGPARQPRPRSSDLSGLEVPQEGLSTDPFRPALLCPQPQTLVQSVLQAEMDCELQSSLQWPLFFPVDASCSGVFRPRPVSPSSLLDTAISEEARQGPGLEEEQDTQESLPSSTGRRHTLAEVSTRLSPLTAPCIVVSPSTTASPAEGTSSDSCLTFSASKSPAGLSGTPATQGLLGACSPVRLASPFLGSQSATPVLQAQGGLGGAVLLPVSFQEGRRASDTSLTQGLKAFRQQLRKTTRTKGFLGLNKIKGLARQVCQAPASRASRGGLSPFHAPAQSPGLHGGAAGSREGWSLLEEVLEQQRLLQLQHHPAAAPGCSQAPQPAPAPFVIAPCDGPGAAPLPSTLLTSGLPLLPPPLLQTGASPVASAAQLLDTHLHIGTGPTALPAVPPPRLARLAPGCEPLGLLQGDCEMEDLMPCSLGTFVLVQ

[4] = target: T3, Cyclin-dependent kinase 11A (Homo sapiens) (UniProt Q9UQ88); assay: Selectivity interaction (KinomeScan (DiscoverX)) EUB0001049a CDK11A; settings: at 1 µM
T3 sequence (whole entry): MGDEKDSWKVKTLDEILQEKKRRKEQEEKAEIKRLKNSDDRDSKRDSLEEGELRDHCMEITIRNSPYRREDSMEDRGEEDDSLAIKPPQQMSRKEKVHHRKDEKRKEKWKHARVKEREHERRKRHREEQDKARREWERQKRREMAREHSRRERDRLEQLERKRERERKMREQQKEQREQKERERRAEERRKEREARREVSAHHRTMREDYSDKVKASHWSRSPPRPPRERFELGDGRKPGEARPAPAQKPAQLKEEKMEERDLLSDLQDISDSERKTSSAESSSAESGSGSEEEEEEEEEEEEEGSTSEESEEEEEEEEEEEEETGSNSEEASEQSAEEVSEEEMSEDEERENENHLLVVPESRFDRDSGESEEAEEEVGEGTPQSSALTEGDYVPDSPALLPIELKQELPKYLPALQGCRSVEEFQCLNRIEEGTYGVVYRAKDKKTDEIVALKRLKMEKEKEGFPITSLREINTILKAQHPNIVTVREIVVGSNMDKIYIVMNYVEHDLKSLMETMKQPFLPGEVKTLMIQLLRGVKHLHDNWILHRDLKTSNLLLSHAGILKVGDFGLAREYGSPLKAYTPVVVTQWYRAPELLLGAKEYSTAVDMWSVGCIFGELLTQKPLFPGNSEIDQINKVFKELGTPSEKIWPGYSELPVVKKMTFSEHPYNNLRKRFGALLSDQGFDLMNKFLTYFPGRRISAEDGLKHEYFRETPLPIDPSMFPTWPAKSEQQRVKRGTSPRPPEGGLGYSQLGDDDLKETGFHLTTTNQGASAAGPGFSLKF

[5] = target: Mitogen-activated protein kinase 1 (Homo sapiens, UniProt P28482); assay: Selectivity interaction (KinomeScan (DiscoverX)) EUB0001079a MAPK1; settings: at 1 µM
Chain of Mitogen-activated protein kinase 1 (P28482 whole entry): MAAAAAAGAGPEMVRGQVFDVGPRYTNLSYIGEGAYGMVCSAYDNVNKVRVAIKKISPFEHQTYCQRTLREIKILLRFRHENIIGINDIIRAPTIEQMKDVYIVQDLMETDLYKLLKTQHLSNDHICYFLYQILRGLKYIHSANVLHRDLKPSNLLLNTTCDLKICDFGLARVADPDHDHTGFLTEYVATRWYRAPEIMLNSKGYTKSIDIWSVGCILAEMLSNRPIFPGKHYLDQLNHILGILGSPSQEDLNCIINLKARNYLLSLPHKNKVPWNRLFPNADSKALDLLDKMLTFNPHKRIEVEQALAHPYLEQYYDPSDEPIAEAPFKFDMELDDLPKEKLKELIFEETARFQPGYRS

[6] = target: Calcium/calmodulin-dependent protein kinase type 1G (Homo sapiens) (UniProt Q96NX5); assay: Selectivity interaction (KinomeScan (DiscoverX)) EUB0001619a CAMK1G; settings: at 1 µM
Chain of Calcium/calmodulin-dependent protein kinase type 1G (Homo sapiens) (Q96NX5 whole entry): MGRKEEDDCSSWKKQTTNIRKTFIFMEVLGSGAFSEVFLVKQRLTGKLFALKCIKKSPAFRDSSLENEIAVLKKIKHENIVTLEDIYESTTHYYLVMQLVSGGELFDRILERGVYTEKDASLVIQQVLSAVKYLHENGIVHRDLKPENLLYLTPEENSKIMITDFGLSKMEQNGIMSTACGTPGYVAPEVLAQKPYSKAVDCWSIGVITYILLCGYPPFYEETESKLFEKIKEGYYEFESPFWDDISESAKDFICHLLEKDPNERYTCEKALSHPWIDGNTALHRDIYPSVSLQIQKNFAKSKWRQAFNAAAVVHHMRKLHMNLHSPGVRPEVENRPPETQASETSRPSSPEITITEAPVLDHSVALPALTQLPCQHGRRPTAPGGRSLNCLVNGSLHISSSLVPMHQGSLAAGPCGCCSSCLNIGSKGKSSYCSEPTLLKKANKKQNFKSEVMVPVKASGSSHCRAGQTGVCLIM

[7] = target: DNA-dependent protein kinase catalytic subunit (Homo sapiens) (UniProt P78527); assay: Selectivity interaction (ActivX KiNativ screen (ex vivo kinase selectivity in human PBMCs)) EUB0001619a PRKDC; type: cell-based; settings: PBMC, at 1 µM

Structure (SMILES): O=C(NOC[C@H](O)CO)c1ccc(F)c(F)c1Nc1ccc(I)cc1F
% of control [1]: 48% | % of control [2]: 100%

% of control ([3]; at 1 µM): 107% | % of control ([3]; at 5 µM): 102%
Structure (SMILES): C=CC(=O)Nc1cccc(C(=O)Nc2ccc(Nc3cc(-c4[nH]c(SC)nc4C)ccn3)cc2)c1

Structure (SMILES): COc1cc(Nc2nc(C)cc(-c3cnn4nc(OC)ccc34)n2)cc(C(F)(F)F)c1
% of control [4]: 83%

Structure (SMILES): Nc1cnc(N2CCc3cc(S(=O)(=O)Nc4c(F)cc(Cl)cc4F)cc(N4CCCC4=O)c32)nc1 [TP-020n]
% of control [5]: 100%

Structure (SMILES): N#Cc1cccc(-c2c[nH]c3ncnc(N4CCOCC4)c23)c1
% of control [6]: 100% | % of inhibition [7]: -2%
